Data set [1] deals with T1, human recombinant OX2 (hOX2) receptors expressed in CHO cells (Homo sapiens, UniProt O43614).
T1 construct: host or cells: CHO cells (hOX2-CHO)
T1 sequence (O43614 1-444): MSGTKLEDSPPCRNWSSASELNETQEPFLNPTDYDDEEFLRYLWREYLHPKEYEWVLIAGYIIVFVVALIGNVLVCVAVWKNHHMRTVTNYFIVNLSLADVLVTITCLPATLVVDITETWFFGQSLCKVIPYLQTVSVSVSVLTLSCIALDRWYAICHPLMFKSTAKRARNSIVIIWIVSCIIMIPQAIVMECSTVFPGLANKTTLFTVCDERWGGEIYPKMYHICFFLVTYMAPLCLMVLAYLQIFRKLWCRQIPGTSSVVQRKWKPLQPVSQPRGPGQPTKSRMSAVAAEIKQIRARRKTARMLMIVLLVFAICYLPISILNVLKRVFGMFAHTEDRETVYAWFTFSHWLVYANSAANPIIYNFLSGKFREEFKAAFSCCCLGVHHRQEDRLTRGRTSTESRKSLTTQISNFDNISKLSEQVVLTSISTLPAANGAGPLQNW
Description: IP-1 accumulation assay (IP-One HTRF) in hOX2-CHO cells. Type of data set: cell-based. To be noted: 60 min incubation at 37° C., mean of at least two independent experiments, read-out: EC50_OX2R Category. Put shortly:
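CHO cells in suspension in HBSS/20 mM HEPES pH 7.4 with 50 mM LiCl and 0.1% BSA, given compound (11-point series, 0.5% DMSO) for 60 min at 37 °C. IP-1 read by HTRF ratio, scaled to maximal OX-A response; EC50 from four-parameter fit, mean of ≥2 experiments.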

Experimental findings from patent US20250320227A1, “MACROCYCLIC OREXIN RECEPTOR AGONISTS AND USES THEREOF” (Jazz Pharmaceuticals Ireland Limited, priority 2022, published 2025) are described below.

Like-named read-outs stand apart in the source and are kept apart here.

For `O=C1COC[C@@]2(CCCN3C(=O)OCCOc4cccc(c4)[C@H]4CC[C@H](CC4)OC[C@H]32)N1` (relative stereo), the ring closure, yield of all isomers (from O=C1COC[C@@]2(CCCN(C(=O)OCCCl)[C@H]2CO[C@H]2CC[C@@H](c3cccc(O)c3)CC2)N1, ether bond, Cs2CO3, DMF, 4.02 mM, 60.0 °C, 15.0 h) turned out to be 11.1%.
The compound `CC1COc2ccccc2[C@H]2CC[C@H](CC2)OC[C@@H]2N(CC[C@@]23COCC(=O)N3)C1=O` (relative stereo) [Example 5c, (1′s,3R,10′R,16′S,19′s)-10′-methyl-8′,18′-dioxa-12′-azaspiro[morpholine-3,15′-tetracyclo[17.2.2.0^2,70.0^12,16]tricosane]-2′(7′),3′,5′-triene-5,11′-dione and (1′s,3S, 10′S,16′R,19′s)-10′-methyl-8′,18′-dioxa-12′-azaspiro[morpholine-3,15′-tetracyclo[17.2.2.0^2,70.0^12,16]tricosane]-2′(7′), 3′,5′-triene-5,11′-dione] had a ring closure, yield of all isomers (from CC(COc1ccccc1[C@H]1CC[C@@H](OC[C@@H]2NCC[C@@]23COCC(=O)N3)CC1)C(=O)O, amide bond, HATU/DIPEA, acetonitrile, 3.68 mM, 3.0 h) of 9.4%. Also, the EC50 in data set [1] lay within 100 to 1000 nM.
Where the note is “from O=C(O)CCCOc1ccccc1[C@H]1CC[C@@H](OC[C@@H]2NCC[C@@]23COCC(=O)N3)CC1, amide bond, HATU/DIPEA, acetonitrile, 2.01 mM, 3.0 h”, `O=C1COC[C@@]2(CCN3C(=O)CCCOc4ccccc4[C@H]4CC[C@H](CC4)OC[C@H]32)N1` (relative stereo) had a ring closure, yield of all isomers of 54.4%.
Where the note is “from C[C@@H]1CC2(COCC(=O)N2)C(COC2CC=C(c3cccc(F)c3OCC(=O)O)CC2)N1, amide bond, HATU, DIPEA, acetonitrile, 16.9 mM, 3.0 h”, `C[C@@H]1CC2(COCC(=O)N2)C2COC3CC=C(CC3)c3cccc(F)c3OCC(=O)N21` (stereo partly shown) came in with a ring closure, yield of all isomers of 30.1%.
`O=C1COC[C@@]2(CCN3C(=O)CCOc4ccccc4[C@H]4CC[C@H](CC4)OC[C@H]32)N1` (relative stereo): the ring closure, yield of all isomers (from O=C(O)CCOc1ccccc1[C@H]1CC[C@@H](OC[C@@H]2NCC[C@@]23COCC(=O)N3)CC1, amide bond, HATU/DIPEA, acetonitrile, 1.97 mM, 3.0 h) stood at 92.6%.
Where the note is “from C[C@@H]1CC2(COCC(=O)N2)C(CO[C@H]2CC[C@@H](c3cccc(F)c3OCCC(=O)O)CC2)N1, amide bond, HATU, DIPEA, acetonitrile, 12.2 mM, 3.0 h”, `C[C@@H]1C[C@@]2(COCC(=O)N2)[C@@H]2CO[C@H]3CC[C@H](CC3)c3cccc(F)c3OCCC(=O)N12` (single isomer, unassigned) [Example 24a] gave a ring closure, yield of all isomers of 37.1%. In addition, in data set [1], the EC50 is under 100 nM.
`O=C1COC[C@@]2(CCN3C(=O)CC(C(F)(F)F)Oc4ccccc4[C@H]4CC[C@H](CC4)OC[C@H]32)N1` (relative stereo) registered a ring closure, yield of all isomers (from O=C(O)CC(Oc1ccccc1[C@H]1CC[C@@H](OC[C@@H]2NCC[C@@]23COCC(=O)N3)CC1)C(F)(F)F, amide bond, HATU/DIPEA, acetonitrile, 3.68 mM, 3.0 h) of 54.7%.
Take `O=C1COC[C@@]2(CCCN3C(=O)OCCOc4ccccc4-c4cccc(c4F)C[C@H]32)N1` (relative stereo): the ring closure, yield of all isomers (from O=C1COC[C@@]2(CCCN[C@H]2Cc2cccc(-c3ccccc3OCCO)c2F)N1, other bond, triphosgene, MeCN, 15.7 mM, 80.0 °C, 20.5 h) was 3.6%.
For the compound `O=C1COC[C@@]2(CCN3C(=O)CCOc4c(F)cc(F)cc4C4=CCC(CC4)OC[C@H]32)N1` (relative stereo), the ring closure, yield of all isomers (from O=C(O)CCOc1c(F)cc(F)cc1C1=CCC(OC[C@@H]2NCC[C@@]23COCC(=O)N3)CC1, amide bond, HATU/DIPEA, acetonitrile, 3.43 mM, 3.0 h) came to 60.1%.
Regarding `CC1CC(=O)N2CC[C@@]3(COCC(=O)N3)[C@@H]2CO[C@H]2CC[C@H](CC2)c2ccccc2O1` (relative stereo), the ring closure, yield of all isomers (from CC(CC(=O)O)Oc1ccccc1[C@H]1CC[C@@H](OC[C@@H]2NCC[C@@]23COCC(=O)N3)CC1, amide bond, HATU/DIPEA, acetonitrile, 3.7 mM, 3.0 h) is 45.6%.
In the case of `O=C1COC[C@@]2(CCN3C(=O)CCOc4cccc(F)c4[C@H]4CC[C@H](CC4)OC[C@H]32)N1` (relative stereo), the ring closure, yield of all isomers (from O=C(O)CCOc1cccc(F)c1[C@H]1CC[C@@H](OC[C@@H]2NCC[C@@]23COCC(=O)N3)CC1, amide bond, HATU/DIPEA, acetonitrile, 5.42 mM, 25.0 °C, 4.0 h) stood at 46.4%.
Under “from O=C(O)COc1ccccc1[C@H]1CC[C@@H](OCC2NCCCC2O)CC1, amide bond, HATU, acetonitrile, 19.25 mM, 3.0 h”, `O=C1COc2ccccc2[C@H]2CC[C@H](CC2)OCC2C(O)CCCN12` (stereo partly shown) showed a ring closure, yield of all isomers of 65%.
Turning to `C[C@@H]1C[C@@]2(COCC(=O)N2)[C@@H]2CO[C@H]3CC[C@H](CC3)c3cccnc3OCC(=O)N12` (single isomer, unassigned) [Example 23a], the EC50 in data set [1] lay within 100 to 1000 nM.
On the same count and under the same terms, then `O=C1COC[C@]2(CCCN3C(=O)C4(CC4)COc4cccc(F)c4[C@H]4CC[C@H](CC4)OC[C@@H]32)N1` (single isomer, unassigned) [Example 72a, (1′s,16′R,17′S,20′s)-3′-fluorodispiro [cyclopropane-1,10′-[8,19]dioxa-[12]azatetracyclo [18.2.2.0^2,^7.0^12,^17]tetracosane-16′,3″- morpholine]-2′,4′,6′-triene-5″,11′-dione], with 1000 to 10000 nM; and `O=C1COC[C@]2(CCCN3C(=O)COc4ccc(F)cc4[C@H]4CC[C@H](CC4)OC[C@@H]32)N1` (single isomer, unassigned) [Example 41b], with 1000 to 10000 nM; and `CC1CC(=O)N2CCC3(COCC(=O)N3)C2CO[C@H]2CC[C@H](CC2)c2ccccc2O1` (relative stereo) [Example 4, rel-(1′s,3S,16′R,19′s)-9′-methyl-8′,18′-dioxa-12′-azaspiro[morpholine-3,15′-tetracyclo[17.2.2.0^2,70.0^12,16]tricosane]-2′(7′),3′,5′-triene-5,11′-dione], with 100 to 1000 nM.
On the same count and under the same terms, then `O=C1COC[C@@]2(CCCN3C(=O)CCOc4c(F)cc(F)cc4[C@H]4CC[C@H](CC4)OC[C@H]32)N1` (single isomer, unassigned) [Example 50a], with under 100 nM.
Still for that read-out and setting: in the case of `C[C@@H]1C[C@]2(COCC(=O)N2)[C@H]2CO[C@H]3CC[C@H](CC3)c3ccccc3OCCC(=O)N12` (single isomer, unassigned) [Example 13b] it was 100 to 1000 nM; in that of `CC1CC2(COCC(=O)N2)C2COC3CCC(CC3)c3ccncc3OCCC(=O)N12` (single isomer, unassigned) [Example 74], under 100 nM.
As to `O=C1N[C@]2(CCN3C(=O)CCOc4ccccc4[C@H]4CC[C@H](CC4)OC[C@H]32)COC1F` (relative stereo), the ring closure, yield of all isomers (from O=C(O)CCOc1ccccc1[C@H]1CC[C@@H](OC[C@@H]2NCC[C@@]23COC(F)C(=O)N3)CC1, amide bond, HATU/DIPEA, acetonitrile, 3.66 mM, 3.0 h) was found to be 46.1%.
Regarding `O=C1COC[C@@]2(CCCN3C(=O)COc4c(F)cccc4[C@H]4CC[C@H](CC4)OC[C@H]32)N1` (single isomer, unassigned) [Example 38a], the EC50 in data set [1] was under 100 nM.
Still for that read-out and setting: then `O=C1COCC2(CCCN3C(=O)CCCCOc4cccc(n4)[C@H]4CC[C@H](CC4)OCC32)N1` (mixture of isomers) [Example 76, (1′s,21′s)-7′,20′-dioxa-13′,26′-diazaspiro[morpholine-3,17′-tetracyclo[19.2.2.1^2,60.0^13,18]hexacosane]-2′,4′,6′(26′)-triene-5,12′-dione], with under 100 nM; and `Cc1cccc2c1[C@H]1CC[C@H](CC1)OC[C@@H]1N(CCC[C@@]13COCC(=O)N3)C(=O)CO2` (single isomer, unassigned) [Example 47a], with under 100 nM; and `C[C@@H]1C[C@]2(COCC(=O)N2)[C@H]2CO[C@H]3CC[C@H](CC3)c3cccc(F)c3OCCC(=O)N12` (single isomer, unassigned) [Example 24b], with 100 to 1000 nM.
Same read-out and setting: then `O=C1COC[C@]2(CCCN3C(=O)COc4ccccc4[C@H]4CC[C@H](CC4)OC[C@@H]32)N1` (single isomer, unassigned) [Example 32b], with over 10000 nM; and `C[C@@H]1CC(=O)N2CC[C@@]3(COCC(=O)N3)[C@@H]2CO[C@H]2CC[C@H](CC2)c2ccccc2O1` (single isomer, unassigned) [Example 4c], with 100 to 1000 nM; and `O=C1COC[C@]2(CCCN3C(=O)COc4ccc(F)c(F)c4[C@H]4CC[C@H](CC4)OC[C@@H]32)N1` (single isomer, unassigned) [Example 43b], with over 10000 nM.
Still for that read-out and setting: then `O=C1COCC2(CCCN3C(=O)CCCOc4ccccc4[C@H]4CC[C@H](CC4)OCC32)N1` (stereo partly drawn) [Example 34, Rel-(1′s,3S,18′R,21′s)-8′,20′-dioxa-13′-azaspiro[morpholine-3,17′-tetracyclo[19.2.2.0^2,70.0^13,18]pentacosane]-2′(7′),3′,5′-triene-5,12′-dione], with under 100 nM; and `O=C1COC[C@@]2(CCCN3C(=O)OCCOc4cccc(c4)[C@H]4CC[C@H](CC4)OC[C@H]32)N1` (single isomer, unassigned) [Example 53a], with under 100 nM.
